From patent US9630958B2, “Triazine compounds” (Sphaera Pharma Pte. Ltd., priority 2012, dated 2017)

How the values were obtained:
[1] = molecular target: T1, PI3 Kinase alpha (p110 alpha/p85 alpha) (Homo sapiens, UniProt P42336); assay: PI3K TR-FRET assay (Transcreener ADP2); format: biochemical; settings: for inhibition at 1 µM: 1 uM compound, read-out: PI3K % Inhib@1 uM; for IC50: PI3K alpha, 1 μM ATP, 50 μM PIP2
T1 construct: purchased Invitrogen
Outline: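 p110α/p85α with diC8 PIP2 (50 μM) and 1 μM ATP in 50 mM HEPES pH 7.4, MgCl2, CHAPS, DTT, EGTA; 1 h at room temperature. ADP detected by Transcreener ADP2 TR-FRET (665/615 nm ratio), converted to product via ADP-ATP standard curve; IC50 from four-parameter fit of % inhibition.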

[2] = molecular target: T2, Recombinant mTOR (FRAP1) (Homo sapiens, UniProt P42345); assay: mTOR in vitro kinase assay (TR-FRET, phosphorylation of GFP-4E-BP1); format: biochemical; settings: for IC50: 8 μM ATP, 400 nM GFP-4E-BP1; for inhibition at 1 µM: 1 uM compound, read-out: mTOR % Inhib@1 uM
T2 construct: purchased Invitrogen
T2 sequence (P42345 1360-2549 limits assumed): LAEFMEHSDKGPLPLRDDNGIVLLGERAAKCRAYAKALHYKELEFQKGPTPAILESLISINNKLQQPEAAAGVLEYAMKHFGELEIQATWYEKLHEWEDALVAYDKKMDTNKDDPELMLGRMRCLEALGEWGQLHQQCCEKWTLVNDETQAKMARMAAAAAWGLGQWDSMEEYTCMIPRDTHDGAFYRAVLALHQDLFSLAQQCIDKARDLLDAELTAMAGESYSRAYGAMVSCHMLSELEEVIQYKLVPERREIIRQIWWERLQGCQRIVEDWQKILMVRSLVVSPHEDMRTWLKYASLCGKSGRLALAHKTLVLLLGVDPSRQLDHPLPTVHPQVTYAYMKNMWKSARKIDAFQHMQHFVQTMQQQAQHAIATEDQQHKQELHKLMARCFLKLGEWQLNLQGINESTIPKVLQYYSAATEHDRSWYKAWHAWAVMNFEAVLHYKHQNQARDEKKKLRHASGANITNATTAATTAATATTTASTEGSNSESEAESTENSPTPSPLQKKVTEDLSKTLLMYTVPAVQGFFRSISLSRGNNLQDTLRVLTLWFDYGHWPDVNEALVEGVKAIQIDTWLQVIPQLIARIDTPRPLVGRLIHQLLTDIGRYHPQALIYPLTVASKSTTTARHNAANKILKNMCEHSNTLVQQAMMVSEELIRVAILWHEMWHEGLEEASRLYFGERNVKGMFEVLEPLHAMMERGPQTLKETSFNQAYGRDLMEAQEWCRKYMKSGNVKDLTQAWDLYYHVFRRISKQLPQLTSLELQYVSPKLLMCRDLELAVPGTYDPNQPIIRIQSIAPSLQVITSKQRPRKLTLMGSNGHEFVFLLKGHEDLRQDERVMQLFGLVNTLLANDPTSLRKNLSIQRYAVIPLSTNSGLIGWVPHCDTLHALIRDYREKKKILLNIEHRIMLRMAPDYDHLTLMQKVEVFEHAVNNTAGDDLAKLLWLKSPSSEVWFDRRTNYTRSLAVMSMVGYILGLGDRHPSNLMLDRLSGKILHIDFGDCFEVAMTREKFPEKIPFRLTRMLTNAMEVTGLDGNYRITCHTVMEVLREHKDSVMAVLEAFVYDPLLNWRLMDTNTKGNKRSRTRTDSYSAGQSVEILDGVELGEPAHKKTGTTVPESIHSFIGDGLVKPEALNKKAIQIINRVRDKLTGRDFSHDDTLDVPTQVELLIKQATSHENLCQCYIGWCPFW
Outline: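 Recombinant human mTOR with GFP-4E-BP1 substrate at 400 nM and 8 μM ATP, 1 h at room temperature, then quenched with 10 mM EDTA plus 2 nM Tb-anti-p4E-BP1 (pThr46) for 1 h. TR-FRET 520/486 nm ratio fitted against inhibitor concentration by four-parameter sigmoidal regression.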

T1 sequence (P42336 whole entry): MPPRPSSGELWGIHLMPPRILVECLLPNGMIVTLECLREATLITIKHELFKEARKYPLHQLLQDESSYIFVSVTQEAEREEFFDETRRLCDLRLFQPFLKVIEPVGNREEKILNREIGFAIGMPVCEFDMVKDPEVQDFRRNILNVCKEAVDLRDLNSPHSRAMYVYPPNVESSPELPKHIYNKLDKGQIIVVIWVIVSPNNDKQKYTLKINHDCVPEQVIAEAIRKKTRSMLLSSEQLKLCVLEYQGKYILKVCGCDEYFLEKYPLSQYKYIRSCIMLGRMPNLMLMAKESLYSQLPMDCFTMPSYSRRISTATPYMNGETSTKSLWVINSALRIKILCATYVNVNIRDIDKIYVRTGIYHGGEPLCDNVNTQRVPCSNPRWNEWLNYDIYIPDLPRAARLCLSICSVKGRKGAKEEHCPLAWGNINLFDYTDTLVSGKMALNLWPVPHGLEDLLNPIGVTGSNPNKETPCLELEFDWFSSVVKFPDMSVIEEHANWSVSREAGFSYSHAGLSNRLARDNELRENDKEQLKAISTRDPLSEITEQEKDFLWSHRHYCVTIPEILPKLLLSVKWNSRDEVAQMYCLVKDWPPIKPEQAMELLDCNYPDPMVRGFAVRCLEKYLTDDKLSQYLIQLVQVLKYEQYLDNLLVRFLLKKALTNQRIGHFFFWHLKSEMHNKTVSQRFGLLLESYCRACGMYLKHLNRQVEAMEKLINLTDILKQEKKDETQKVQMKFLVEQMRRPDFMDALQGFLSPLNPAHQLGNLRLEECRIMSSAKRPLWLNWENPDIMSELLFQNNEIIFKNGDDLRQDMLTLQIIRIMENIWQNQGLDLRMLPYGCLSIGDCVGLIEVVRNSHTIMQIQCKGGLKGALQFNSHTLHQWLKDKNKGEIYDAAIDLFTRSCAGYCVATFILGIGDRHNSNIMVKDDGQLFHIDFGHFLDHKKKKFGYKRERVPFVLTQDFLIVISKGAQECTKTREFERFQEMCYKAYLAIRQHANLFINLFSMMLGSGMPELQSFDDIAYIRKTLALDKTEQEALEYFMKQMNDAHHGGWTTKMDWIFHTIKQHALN
T1 sequence (P27986 whole entry partner): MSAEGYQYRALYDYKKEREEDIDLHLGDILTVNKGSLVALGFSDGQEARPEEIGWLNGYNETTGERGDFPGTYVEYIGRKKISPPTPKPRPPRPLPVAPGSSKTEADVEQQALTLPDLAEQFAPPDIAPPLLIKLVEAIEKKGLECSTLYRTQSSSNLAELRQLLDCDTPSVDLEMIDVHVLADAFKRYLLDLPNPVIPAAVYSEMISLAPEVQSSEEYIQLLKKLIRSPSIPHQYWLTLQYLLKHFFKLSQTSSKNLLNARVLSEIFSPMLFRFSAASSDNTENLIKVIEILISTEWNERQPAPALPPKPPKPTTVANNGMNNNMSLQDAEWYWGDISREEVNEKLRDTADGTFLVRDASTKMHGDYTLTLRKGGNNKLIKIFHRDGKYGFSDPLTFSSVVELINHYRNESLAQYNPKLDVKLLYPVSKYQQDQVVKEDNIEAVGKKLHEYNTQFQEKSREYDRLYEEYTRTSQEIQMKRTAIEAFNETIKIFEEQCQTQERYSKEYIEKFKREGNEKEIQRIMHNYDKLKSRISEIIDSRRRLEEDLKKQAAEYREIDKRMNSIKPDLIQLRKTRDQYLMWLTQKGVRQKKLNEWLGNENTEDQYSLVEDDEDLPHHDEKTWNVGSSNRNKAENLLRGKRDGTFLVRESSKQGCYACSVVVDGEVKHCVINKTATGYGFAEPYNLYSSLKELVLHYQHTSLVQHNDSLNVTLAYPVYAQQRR

| SMILES | inhibition at 1 µM [1] [%] | IC50 [1] [µM] | IC50 [2] [µM] | inhibition at 1 µM [2] [%] |
| --- | --- | --- | --- | --- |
| C[C@@H]1CN(c2nc(Oc3ccc(C(=O)N(C)C)cc3F)nc(-c3ccc(N)nc3)n2)[C@@H](C)CO1 [Compound 10098, 4-((4-(6-Aminopyridin-3-yl)-6-((2R,5S)-2,5-dimethylmorpholino)-1,3,5-triazin-2-yl)oxy)-3-fluoro-N,N-dimethylbenzamide] | > 50 | < 1 | < 1 | – |
| C[C@@H]1COCCN1c1nc(Oc2ccc(C(=O)N(C)C)cc2F)nc(-c2ccc(N)nc2)n1 [Compound 10099, (R)-4-((4-(6-Aminopyridin-3-yl)-6-(3-methylmorpholino)-1,3,5-triazin-2-yl)oxy)-3-fluoro-N,N-dimethylbenzamide] | > 50 | < 1 | < 1 | – |
| C[C@H]1COCCN1c1nc(Oc2ccc(C(=O)N(C)C)cc2F)nc(-c2ccc3[nH]ccc3c2)n1 [Compound 10100, (S)-4-((4-(1H-indol-5-yl)-6-(3-methylmorpholino)1,3,5-triazin-2-yl)oxy)3-fluoro-N,N-dimethylbenzamide] | – | < 1 | < 1 | > 50 |
| C[C@H]1COCCN1c1nc(Oc2ccc(C(=O)N(C)C)cc2F)nc(-c2cnc3[nH]ccc3c2)n1 [Compound 10103, (S)-3-Fluoro-N,N-dimethyl-4-((4-(3-methylmorpholino)-6-(1H-pyrrolo-[2,3-b]pyridin-5-yl)-1,3,5-triazin-2-yl)oxy)benzamide] | – | < 1 | < 1 | – |
| C[C@H]1CN(c2nc(Oc3ccc(C(=O)N(C)C)cc3F)nc(-c3cnc4[nH]ccc4c3)n2)[C@@H](C)CO1 [Compound 10104, 4-((4-((2S,5S)-2,5-dimethylmorpholino)-6-(1H-pyrrolo[2,3-b]pyridine-5-yl)-1,3,5-triazin-2-yl)oxy)-3-fluoro-N,N-dimethylbenzamide] | – | < 1 | < 1 | – |
| C[C@@H]1CN(c2nc(Oc3ccc(C(=O)N(C)C)cc3F)nc(-c3cnc4[nH]ccc4c3)n2)[C@@H](C)CO1 [Compound 10105, 4-((4-((2R,5S)-2,5-dimethylmorpholino)-6-(1H-pyrrolo[2,3-b]pyridine-5-yl)-1,3,5-triazin-2-yl)oxy)-3-fluoro-N,N-dimethylbenzamide] | – | > 1 | < 1 | – |
| CC(C(=O)N(C)C)c1ccc(Oc2nc(-c3cnc(N)s3)nc(N3CCOCC3)n2)cc1 (stereo not drawn) [Compound 10115, 2-(4-(4-(2-aminothiazol-5-yl)-6-morpholino-1,3,5-triazin-2-yloxy)phenyl)-N,N-dimethylpropanamide] | – | < 1 | – | > 50 |
| CN(C)C(=O)c1ccc(Oc2nc(-c3cnc(N)s3)nc(N3CCSCC3)n2)cc1 [Compound 10118, 4-(4-(2-aminothiazol-5-yl)-6-thiomorpholino-1,3,5-triazin-2-yloxy)-N,N-dimethylbenzamide] | – | > 1 | > 3 | > 50 |
| CN(C)C(=O)c1ccc(Oc2nc(-c3cnc(N)s3)nc(N3CCCCC3)n2)cc1 [Compound 10119, 4-(4-(2-aminothiazol-5-yl)-6-(piperidin-1-yl)-1,3,5-triazin-2-yloxy)-N,N-dimethylbenzamide] | – | > 10 | – | < 50 |
| C[C@@H]1CN(c2nc(Oc3ccc(C(=O)N(C)C)cc3)nc(-c3cnc(N)s3)n2)C[C@H](C)O1 [Compound 10122, 4-(4-(2-aminothiazol-5-yl)-6-((2S,6R)-2,6-dimethylmorpholino)-1,3,5-triazin-2-yloxy)-N,N-dimethylbenzamide] | < 50 | – | > 1 | > 50 |
| CN(C)C(=O)c1ccc(Oc2nc(-c3cnc(N)s3)nc(N3CCS(=O)(=O)CC3)n2)cc1 [Compound 10123] | < 50 | – | – | < 50 |
| CN(C)C(=O)c1ccc(Oc2nc(-c3cnc(N)[nH]3)nc(N3CCOCC3)n2)cc1 [Compound 10124, 4-(4-(2-amino-1H-imidazol-5-yl)-6-morpholino-1,3,5-triazin-2-yloxy)-N,N-dimethylbenzamide] | < 50 | – | – | < 50 |
| C[C@H]1COCCN1c1nc(Oc2ccc(C(=O)N(C)C)cc2)nc(C2=CC=C(N)N(O)C2)n1 [Compound 10125] | < 50 | – | – | < 50 |
| C[C@H]1COCCN1c1nc(Oc2ccc(C(=O)N(C)C)cc2)nc(-c2cnc(N)nc2)n1 [Compound 10126, 4-(4-(2-aminopyrimidin-5-yl)-6-((S)-3-methylmorpholino)-1,3,5-triazin-2-yloxy)-N,N-dimethylbenzamide] | – | < 1 | < 1 | > 50 |
| C[C@H]1CN(c2nc(Oc3ccc(C(=O)N(C)C)cc3)nc(-c3cnc(N)s3)n2)CCO1 [Compound 10127, 4-(4-(2-aminothiazol-5-yl)-6-((S)-2-methylmorpholino)-1,3,5-triazin-2-yloxy)-N,N-dimethylbenzamide] | > 50 | < 1 | < 1 | > 50 |
| CN(C)C(=O)c1ccc(Oc2nc(-c3cnc(N)s3)nc(N3CCOCC3(C)C)n2)cc1 [Compound 10128, 4-(4-(2-aminothiazol-5-yl)-6-(3,3-dimethylmorpholino)-1,3,5-triazin-2-yloxy)-N,N-dimethylbenzamide] | > 50 | < 1 | < 1 | > 50 |
| CN(C)C(=O)c1ccc(Oc2nc(-c3cnc(N)s3)nc(N3CCO[C@@H]4CCCC[C@H]43)n2)cc1 [Compound 10131, 4-(4-(2-aminothiazol-5-yl)-6-((4aR,8aR)-octahydrobenzo[b][1,4]oxazin-4-yl)-1,3,5-triazin-2-yloxy)-N,N-dimethylbenzamide] | < 50 | – | – | < 50 |
| CN(C)C(=O)c1ccc(Oc2nc(-c3cnc(N)s3)nc(N3CCO[C@@H]4CCC[C@H]43)n2)cc1 [Compound 10132, 4-(4-(2-aminothiazol-5-yl)-6-((4aR,7aR)-hexahydrocyclopenta[b][1,4]oxazin-4(4aH)-yl)-1,3,5-triazin-2-yloxy)-N,N-dimethylbenzamide] | < 50 | < 1 | < 1 | > 50 |
| CNC(=O)Nc1ncc(-c2nc(NC)nc(N3CCOC[C@@H]3C)n2)s1 [Compound 10135, 1-methyl-3-(5-(4-(methylamino)-6-((S)-3-methylmorpholino)-1,3,5-triazin-2-yl)thiazol-2-yl)urea] | < 50 | – | – | < 50 |
| CN(C)C(=O)c1ccc(Oc2nc(-c3ccc4[nH]ncc4c3)nc(N3C4CCC3COC4)n2)c(F)c1 [Compound 10136, 4-(4-(3-oxa-8-aza-bicyclo[3.2.1]octan-8-yl)-6-(1H-indazol-5-yl)-1,3,5-triazin-2-yloxy)-3-fluoro-N,N-dimethylbenzamide] | < 50 | > 10 | < 1 | > 50 |
| C[C@H]1COCCN1c1nc(OC2CCN(C(=O)N(C)C)CC2)nc(-c2cnc(N)s2)n1 [Compound 10137, 4-(4-(2-aminothiazol-5-yl)-6-((S)-3-methylmorpholino)-1,3,5-triazin-2-yloxy)-N,N-dimethylpiperidine-1-carboxamide] | – | < 1 | < 1 | > 50 |
| C[C@H]1COCCN1c1nc(OC2CCN(C(=O)N(C)C)C2)nc(-c2cnc(N)s2)n1 (stereo partly drawn) [Compound 10138, 3-(4-(2-aminothiazol-5-yl)-6-((S)-3-methylmorpholino)-1,3,5-triazin-2-yloxy)-N,N-dimethylpyrrolidine-1-carboxamide] | > 50 | < 1 | > 1 | < 50 |
| C[C@H]1COCCN1c1nc(O[C@H]2CC[C@H](C(=O)N(C)C)CC2)nc(-c2cnc(N)s2)n1 [Compound 10139, (1S,4r)-4-(4-(2-aminothiazol-5-yl)-6-((S)-3-methylmorpholino)-1,3,5-triazin-2-yloxy)-N,N-dimethylcyclohexanecarboxamide] | – | < 1 | < 1 | > 50 |
| CN(C)C(=O)c1ccc(Oc2nc(-c3ccc4[nH]ncc4c3)nc(N3CC4CCC(C3)O4)n2)c(F)c1 [Compound 10140, 4-(4-(8-oxa-3-aza-bicyclo[3.2.1]octan-3-yl)-6-(1H-indazol-5-yl)-1,3,5-triazin-2-yloxy)-3-fluoro-N,N-dimethylbenzamide] | – | > 10 | < 1 | > 50 |
| C[C@H]1COCCN1c1nc(OC2CCC(C(=O)N(C)C)CC2)nc(-c2ccc3[nH]ccc3c2)n1 (stereo partly drawn) [Compound 10141, (1R,4s)-4-(4-(1H-indol-5-yl)-6-((S)-3-methylmorpholino)-1,3,5-triazin-2-yloxy)-N,N-dimethylcyclohexanecarboxamide] | < 50 | > 10 | < 1 | – |
| C[C@@H]1OCCN(c2nc(Oc3ccc(C(=O)N(C)C)cc3)nc(-c3cnc(N)s3)n2)[C@H]1C [Compound 10142, 4-(4-(2-aminothiazol-5-yl)-6-((2S,3S)-2,3-dimethylmorpholino)-1,3,5-triazin-2-yloxy)-N,N-dimethylbenzamide] | – | > 10 | < 1 | – |
| C[C@H]1COCCN1c1nc(Oc2ccc(C(=O)N(C)C)cc2)nc(-c2cnc(N(C)C)s2)n1 [Compound 10143, 4-(4-(2-(dimethylamino)thiazol-5-yl)-6-((S)-3-methylmorpholino)-1,3,5-triazin-2-yloxy)-N,N-dimethylbenzamide] | < 50 | > 1 | > 1 | – |
